Experimental data taken from patent publication US11034993B2, “Assay to measure factor Xa inhibitors” (McMaster University, priority 2018, dated 2021).

Columns and labels:
Type in all cases: biochemical
FXa [1] = biological target: T1, FXa (Homo sapiens, UniProt P00742); experiment: Flu-II cleavage by residual FXa in individual plasma samples; details: citrated plasma from four individuals; rivaroxaban 0 to 5 nM, apixaban 0 to 10 nM
Target sequence in this assay (P00742 41-179 limits assumed): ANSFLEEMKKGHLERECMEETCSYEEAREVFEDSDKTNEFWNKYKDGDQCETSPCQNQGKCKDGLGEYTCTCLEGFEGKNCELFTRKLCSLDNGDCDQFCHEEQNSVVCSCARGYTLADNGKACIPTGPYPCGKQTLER
Target sequence in this assay (P00742 235-488 limits assumed): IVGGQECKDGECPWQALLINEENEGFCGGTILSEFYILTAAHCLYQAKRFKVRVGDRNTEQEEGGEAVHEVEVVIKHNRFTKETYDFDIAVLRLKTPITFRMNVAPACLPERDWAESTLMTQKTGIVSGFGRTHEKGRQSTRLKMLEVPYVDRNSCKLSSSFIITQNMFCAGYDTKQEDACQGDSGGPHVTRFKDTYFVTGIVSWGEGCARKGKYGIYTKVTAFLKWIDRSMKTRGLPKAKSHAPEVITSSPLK
Target sequence in this assay (P12259 29-737 partner limits assumed): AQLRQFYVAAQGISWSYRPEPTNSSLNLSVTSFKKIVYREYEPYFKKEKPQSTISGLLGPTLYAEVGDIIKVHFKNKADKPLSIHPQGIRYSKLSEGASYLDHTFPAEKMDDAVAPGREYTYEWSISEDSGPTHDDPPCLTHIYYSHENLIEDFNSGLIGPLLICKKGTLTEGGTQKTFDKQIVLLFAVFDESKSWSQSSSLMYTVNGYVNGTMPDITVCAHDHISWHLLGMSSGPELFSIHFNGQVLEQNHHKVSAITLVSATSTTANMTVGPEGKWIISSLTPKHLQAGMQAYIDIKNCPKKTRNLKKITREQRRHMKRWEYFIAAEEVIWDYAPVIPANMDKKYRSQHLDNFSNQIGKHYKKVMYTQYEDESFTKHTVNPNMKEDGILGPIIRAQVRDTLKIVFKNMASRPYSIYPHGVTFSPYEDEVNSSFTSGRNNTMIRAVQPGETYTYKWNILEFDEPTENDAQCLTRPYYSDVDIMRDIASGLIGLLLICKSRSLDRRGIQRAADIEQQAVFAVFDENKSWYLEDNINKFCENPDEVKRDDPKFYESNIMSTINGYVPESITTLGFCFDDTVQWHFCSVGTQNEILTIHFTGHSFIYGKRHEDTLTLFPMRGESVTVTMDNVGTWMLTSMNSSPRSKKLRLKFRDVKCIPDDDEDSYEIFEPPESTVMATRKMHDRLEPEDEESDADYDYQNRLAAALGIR
Target sequence in this assay (P12259 1574-2224 partner limits assumed): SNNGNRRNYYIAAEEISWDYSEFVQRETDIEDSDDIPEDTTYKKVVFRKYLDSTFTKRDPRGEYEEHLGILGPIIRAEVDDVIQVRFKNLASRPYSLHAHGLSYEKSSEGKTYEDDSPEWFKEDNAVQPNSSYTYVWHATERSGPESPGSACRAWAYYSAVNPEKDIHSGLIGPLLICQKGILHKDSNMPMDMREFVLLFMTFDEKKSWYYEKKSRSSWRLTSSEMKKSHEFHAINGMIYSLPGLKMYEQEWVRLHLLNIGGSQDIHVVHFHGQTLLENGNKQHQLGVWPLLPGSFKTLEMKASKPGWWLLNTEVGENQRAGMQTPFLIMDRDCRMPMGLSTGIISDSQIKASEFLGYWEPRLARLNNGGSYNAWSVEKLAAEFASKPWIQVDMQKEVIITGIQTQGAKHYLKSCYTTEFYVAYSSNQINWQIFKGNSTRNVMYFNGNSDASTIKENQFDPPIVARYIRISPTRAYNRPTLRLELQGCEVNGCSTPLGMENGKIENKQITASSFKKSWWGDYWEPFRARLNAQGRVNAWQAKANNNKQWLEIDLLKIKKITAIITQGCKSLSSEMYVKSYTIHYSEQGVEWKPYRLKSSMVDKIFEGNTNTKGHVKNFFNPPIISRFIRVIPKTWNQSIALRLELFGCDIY

FXa [2] = biological target: T1, FXa; experiment: Rate of Flu-II cleavage by residual FXa in normal human pooled plasma; details: rivaroxaban 0 to 5 nM, apixaban 0 to 10 nM, 0.1 nM FXa mixture
Target sequence in this assay (P00742 41-179 limits assumed): as the sequence (P00742 41-179 limits assumed) above
Target sequence in this assay (P00742 235-488 limits assumed): as the sequence (P00742 235-488 limits assumed) above
Target sequence in this assay (P12259 29-737 partner limits assumed): as the sequence (P12259 29-737 partner limits assumed) above
Target sequence in this assay (P12259 1574-2224 partner limits assumed): as the sequence (P12259 1574-2224 partner limits assumed) above

FXa [3] = biological target: T1, FXa; experiment: Flu-II cleavage by residual FXa in whole blood; details: citrated whole blood, 0 to 100 nM in blood (2 nM final, 50-fold dilution)
Target sequence in this assay (P00742 41-179 limits assumed): as the sequence (P00742 41-179 limits assumed) above
Target sequence in this assay (P00742 235-488 limits assumed): as the sequence (P00742 235-488 limits assumed) above
Target sequence in this assay (P12259 29-737 partner limits assumed): as the sequence (P12259 29-737 partner limits assumed) above
Target sequence in this assay (P12259 1574-2224 partner limits assumed): as the sequence (P12259 1574-2224 partner limits assumed) above
Procedure: To test whether Flu-II cleavage by residual FXa can be measured in whole blood, citrated blood was collected to be used in the assay. […] A mixture (50 μL) containing 2 μL of whole blood containing varying levels of the DOACs (0 to 100 nM), 0.4 μM Flu-II, and 2 μM hirudin was monitored with FlexStation 3 fluorescent plate reader as described above. Again after one minute of equilibration, 50 μL of a mixture containing 0.1 nM FXa, 10 nM FVa, 50 μM PCPS, and 20 mM CaCl2 was added and mixed by instrument trituration. The initial rates of fluorescence change was then measured and plotted with respect to the final DOAC concentration in the reaction mixture, which results in a 1:50 dilution.

FXa [4] = biological target: T1, FXa; experiment: Flu-II cleavage by residual FXa in plasma with LMWH; details: normal human pooled plasma, LMWH 0 to 1 unit/mL final
Target sequence in this assay (P00742 41-179): as the sequence (P00742 41-179 limits assumed) above
Target sequence in this assay (P00742 235-488): as the sequence (P00742 235-488 limits assumed) above
Target sequence in this assay (P01008 33-464 partner): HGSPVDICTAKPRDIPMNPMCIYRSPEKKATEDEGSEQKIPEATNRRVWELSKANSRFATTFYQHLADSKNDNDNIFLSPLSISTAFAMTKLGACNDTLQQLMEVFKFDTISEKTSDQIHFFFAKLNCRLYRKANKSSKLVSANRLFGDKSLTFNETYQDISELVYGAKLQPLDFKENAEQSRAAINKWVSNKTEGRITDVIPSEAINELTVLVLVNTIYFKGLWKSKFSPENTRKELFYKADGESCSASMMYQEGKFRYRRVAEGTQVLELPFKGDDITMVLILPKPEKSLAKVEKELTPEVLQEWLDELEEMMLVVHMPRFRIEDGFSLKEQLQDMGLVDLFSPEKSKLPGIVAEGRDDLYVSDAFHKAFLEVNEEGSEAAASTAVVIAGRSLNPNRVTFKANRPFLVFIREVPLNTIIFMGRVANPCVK

Compound	maximal inhibition of total FXa activity (FXa [1])	overall inhibition of total activity (rate of Flu-II cleavage) (FXa [2])	maximal inhibition (initial rate of Flu-II cleavage) (FXa [3])	response of rate of Flu-II cleavage to levels of LMWH (FXa [4])
O=C(NC[C@H]1CN(c2ccc(N3CCOCC3=O)cc2)C(=O)O1)c1ccc(Cl)s1 [rivaroxaban]	~80%	~85%	~50%	
dalteparin				sensitive to the levels of LMWH
